Results: patent US20100285145A1, “GPR 119 MODULATORS” (PFIZER INC, priority 2009, published 2010)
Values joined by “and” are separate entries in the source; they are usually repeats but may differ in a detail not shown here. Equal entries are not always repeated.

Experiments:
[1] = biological target: T1, human GPR119 (Homo sapiens, UniProt Q8TDV5); experiment: β-Arrestin PathHunter assay (U2OS hGPR119 β-arrestin cells); format: cell-based; details: for EC50: U2OS hGPR119 β-arrestin cells, 90 min, each line a separate determination, read-out: Human B-arrestin Functional EC50; for Emax: U2OS, read-out: Intrinsic Activity (Human B-arrestin); for Emax / Intrinsic Activity (Human B-arrestin): percent of maximal activity relative to standard GPR119 agonist at 10 micromolar
T1 sequence (Q8TDV5 1-335): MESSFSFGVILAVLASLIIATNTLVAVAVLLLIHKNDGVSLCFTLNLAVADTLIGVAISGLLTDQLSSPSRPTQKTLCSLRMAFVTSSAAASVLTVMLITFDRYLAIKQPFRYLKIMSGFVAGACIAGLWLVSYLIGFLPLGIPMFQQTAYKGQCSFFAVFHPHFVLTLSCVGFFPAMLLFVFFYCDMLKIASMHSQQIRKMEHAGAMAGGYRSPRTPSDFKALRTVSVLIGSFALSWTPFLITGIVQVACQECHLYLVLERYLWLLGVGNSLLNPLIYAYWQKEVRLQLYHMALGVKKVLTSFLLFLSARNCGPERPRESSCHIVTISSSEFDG
Method: GPR119 agonist activity was also determined with a cell-based assay utilizing DiscoverX PathHunter β-arrestin cell assay technology and their U2OS hGPR119 β-arrestin cell line (DiscoverX Cat # 93-0356C3). In this assay, agonist activation is determined by measuring agonist-induced interaction of β-arrestin with activated GPR119. A small, 42 amino acid enzyme fragment, called ProLink was appended to the C-terminus of GPR119. Arrestin was fused to the larger enzyme fragment, termed EA (Enzyme Acceptor). Activation of GPR119 stimulates binding of arrestin and forces the complementation of the two enzyme fragments, resulting in formation of a functional β-galactosidase enzyme capable of hydrolyzing substrate and generating a chemiluminescent signal.
Specifically, U2OS hGPR119 β-arrestin cells (DiscoverX 1×10^7/mL) are removed from cryopreservation and diluted in growth medium (Minimum essential medium (MEM; Gibco Cat # 11095-080), 10% heat inactivated fetal bovine serum (HIFBS; Sigma Cat # F4135-100), […] sodium pyruvate (Sigma Cat # S8636), 500 microg/mL G418 (Sigma Cat # G8168) and 250 microg/mL Hygromycin B (Invitrogen Cat # 10687-010). The cell concentration was adjusted to 1.66×10^5 cells/mL and 30 mLs of this suspension was added to a T-175 flask and incubated at 37 degrees Celsius in a humidified environment in 5% carbon dioxide. After 24 hours, the cells were removed from the T-175 flask with enzyme-free cell dissociation buffer (Gibco cat #13151-014), centrifuged at 800×g and then re-suspended in plating medium (Opti-MEM I (Invitrogen/BRL Cat # 31985-070) and 2% charcoal dextran treated fetal bovine serum (CD serum; HyClone Cat # SH30068.03).
The cell concentration was adjusted to 2.5×10^5 cells/mL with plating medium and 20 microliters of this cell suspension (5000 cells) was added to each well of a white Greiner 384-well low volume assay plate (VWR cat #82051-458) and the plates were incubated at 37 degrees Celsius in a humidified environment in 5% carbon dioxide.
After 16 hours (overnight) the assay plates were removed from the incubator and varying concentrations of each compound to be tested (diluted in assay buffer (1×HBSS+CaCl2+MgCl2 (Gibco Cat # 14025-092), 20 mM HEPES pH 7.0 (Gibco Cat # 15630-080) and 0.1% BSA (Sigma Cat # A9576)) were added to the assay plate wells in a volume of 5 microliters (final DMSO concentration was 0.5%). After a 90 minute incubation at 37 degrees Celsius in a humidified environment in 5% carbon dioxide, 12 microliters of Galacton Star β-galactosidase substrate (PathHunter Detection Kit (DiscoveRx Cat # 93-0001); prepared as described in the manufacturers assay protocol) was added to each well of the assay plate. The plates were incubated at room temperature and after 60 minutes, changes in the luminescence were read with an Envision 2104 multilabel plate reader at 0.1 seconds per well. EC50 determinations were made from an agonist-response curves analyzed with a curve fitting program using a 4-parameter logistic dose response equation.

[2] = biological target: T1, human GPR119; experiment: cAMP HTRF functional assay (hGPR119 HEK-CRE beta-lactamase cells); format: cell-based; set-up: host or cells: HEK293-CRE beta-lactamase; details: for EC50: HTRF cAMP, 30 min, 400 microM IBMX, each line a separate determination; for Intrinsic Activity (Human cAMP) / Emax: percent of maximal activity relative to standard GPR119 agonist at 10 micromolar; for Emax: read-out: Intrinsic Activity (Human cAMP)
Method: GPR119 agonist activity was also determined with a cell-based assay utilizing an HTRF (Homogeneous Time-Resolved Fluorescence) cAMP detection kit (cAMP dynamic 2 Assay Kit; Cis Bio cat #62AM4PEC) that measures cAMP levels in the cell. The method is a competitive immunoassay between native cAMP produced by the cells and the cAMP labeled with the dye d2. The tracer binding is visualized by a Mab anti-cAMP labeled with Cryptate. The specific signal (i.e. energy transfer) is inversely proportional to the concentration of cAMP in either standard or sample.
Specifically, hGPR119 HEK-CRE beta-lactamase cells (Invitrogen 2.5×10^7/mL; the same cell line used in the beta-lactamase assay described above) are removed from cryopreservation and diluted in growth medium (Dulbecco's modified Eagle medium high glucose (DMEM; Gibco Cat # 11995-065), 1% charcoal dextran treated fetal bovine serum (CD serum; HyClone Cat # SH30068.03), 1×MEM Nonessential amino acids (Gibco Cat # 15630-080) and 25 mM HEPES pH 7.0 (Gibco Cat # 15630-080)). The cell concentration was adjusted to 1.5×10^5 cells/mL and 30 mLs of this suspension was added to a T-175 flask and incubated at 37 degrees Celsius in a humidified environment in 5% carbon dioxide. After 16 hours (overnight), the cells were removed from the T-175 flask (by rapping the side of the flask), centrifuged at 800×g and then re-suspended in assay medium (1×HBSS+CaCl2+MgCl2 (Gibco Cat # 14025-092) and 25 mM HEPES pH 7.0 (Gibco Cat # 15630-080)). The cell concentration was adjusted to 6.25×10^5 cells/mL with assay medium and 8 μl of this cell suspension (5000 cells) was added to each well of a white Greiner 384-well, low-volume assay plate (VWR cat #82051-458).
Varying concentrations of each compound to be tested were diluted in assay buffer containing 3-isobutyl-1-methylxanthin (IBMX; Sigma cat #15879) and added to the assay plate wells in a volume of 2 microL (final IBMX concentration was 400 microM and final DMSO concentration was 0.58%). Following 30 minutes incubation at room temperature, 5 microL of labeled d2 cAMP and 5 microL of anti-cAMP antibody (both diluted 1:20 in cell lysis buffer; as described in the manufacturers assay protocol) were added to each well of the assay plate. The plates were then incubated at room temperature and after 60 minutes, changes in the HTRF signal were read with an Envision 2104 multilabel plate reader using excitation of 330 nm and emissions of 615 and 665 nm. Raw data were converted to nM cAMP by interpolation from a cAMP standard curve (as described in the manufacturer's assay protocol) and EC50 determinations were made from an agonist-response curves analyzed with a curve fitting program using a 4-parameter logistic dose response equation.

| EC50 [1] | Emax [1] [%] | EC50 [2] | Intrinsic Activity (Human cAMP) [2] | Emax [2] [%] | Structure (SMILES) | Intrinsic Activity (Human B-arrestin) [1] |
| --- | --- | --- | --- | --- | --- | --- |
| 2.78 nM | 48.6 | 6.37 nM and 15 nM and 9.29 nM | 21.8% and 27.7% | 24.8 | Cc1c(O[C@H]2CCN(C(=O)OC(C)(C)C)C[C@H]2F)ncnc1N1CCc2ncccc21 (racemic) [Example 16, tert-Butyl (3R,4S)-4-{[6-(2,3-dihydro-1H-pyrrolo[3,2-b]pyridin-1-yl)-5-methylpyrimidin-4-yl]oxy}-3-fluoropiperidine-1-carboxylate (racemic)] |  |
|  |  | 339 nM and 567 nM and 1280 nM | 94% and 87.9% | 96.5 | CC(C)OC(=O)N1C[C@H]2COC[C@@H](C1)[C@H]2Oc1cc(N2CCc3cc(S(C)(=O)=O)ccc32)ncn1 [Example 1, Isopropyl 9-anti-({6-[5-(methylsulfonyl)-2,3-dihydro-1H-indol-1-yl]pyrimidin-4-yl}oxy)-3-oxa-7-azabicyclo[3.3.1]nonane-7-carboxylate] |  |
| 4.76 nM | 70 | 84.5 nM and 116 nM | 94.2% | 95.3 | CC(C)OC(=O)N1CCC(Oc2ncnc(N3CCc4cc(S(C)(=O)=O)ccc43)c2C#N)CC1 [Example 6, Isopropyl 4-({5-cyano-6-[5-(methylsulfonyl)-2,3-dihydro-1H-indol-1-yl]pyrimidin-4-yl}oxy)piperidine-1-carboxylate] |  |
| 0.999 nM | 77.1 | 10.3 nM and 12.9 nM and 49.5 nM | 102% and 93.5% | 92.5 | CC(C)(C)OC(=O)N1CCC(Oc2cc(N3CCc4cc(S(C)(=O)=O)ccc43)ncn2)C(F)C1 (racemic) [Example 15, tert-Butyl 3-fluoro-4-({6-[5-(methylsulfonyl)-2,3-dihydro-1H-indol-1-yl]pyrimidin-4-yl}oxy)piperidine-1-carboxylate] |  |
|  |  | 43.9 nM |  | 53 | Cc1c(OC2CCN(C(=O)OC(C)C)CC2)ncnc1N1CCc2cc(S(C)(=O)=O)ccc21 [Example 8, Isopropyl 4-({5-methyl-6-[5-(methylsulfonyl)-2,3-dihydro-1H-indol-1-yl]pyrimidin-4-yl}oxy)piperidine-1-carboxylate] |  |
| 89.4 nM | 29.1 | 24.1 nM and 39.7 nM and 76.3 nM and 30.2 nM | 19.5% and 29.2% and 24.4% | 20.3 | Cc1c(OC2CCN(C(=O)OC(C)C)CC2)ncnc1N1CCc2ncccc21 [Example 13, Isopropyl 4-{[6-(2,3-dihydro-1H-pyrrolo[3,2-b]pyridin-1-yl)-5-methylpyrimidin-4-yl]oxy}-piperidine-1-carboxylate] |  |
| 40.2 nM and 33.1 nM and 74.6 nM and 41.8 nM | 68.8 | 116 nM and 169 nM and 137 nM and 269 nM | 80.4% and 66.6% and 74.1% and 55.6% |  | Cc1c(O[C@H]2[C@@H]3COC[C@H]2CN(C(=O)OC(C)C)C3)ncnc1N1CCc2ncccc21 [Example 22, Isopropyl (9-anti)-9-{[6-(2,3-dihydro-1H-pyrrolo[3,2-b]pyridin-1-yl)-5-methylpyrimidin-4-yl]oxy}-3-oxa-7-azabicyclo[3.3.1]nonane-7-carboxylate] | 70.5% and 71.2% and 60.3% |
| > 10000 nM |  | > 10000 nM |  |  | Cc1c(O[C@@H]2[C@@H]3COC[C@H]2CN(C(=O)OC(C)C)C3)ncnc1N1CCc2ncccc21 [Example 29, Isopropyl (9-syn)-9-{[6-(2,3-dihydro-1H-pyrrolo[3,2-b]pyridin-1-yl)-5-methylpyrimidin-4-yl]oxy}-3-oxa-7-azabicyclo[3.3.1]nonane-7-carboxylate] |  |
|  |  | 99.4 nM |  | 90.3 | CC(C)OC(=O)N1CCC(Oc2cc(N3CCc4cc(S(=O)(=O)CCO)ccc43)ncn2)CC1 [Example 11, Isopropyl 4-[(6-{5-[(2-hydroxyethyl)sulfonyl]-2,3-dihydro-1H-indol-1-yl}pyrimidin-4-yl)oxy]piperidine-1-carboxylate] |  |
|  |  | 13.8 nM and 32.9 nM | 105% | 104 | CC(C)OC(=O)N1CCC(Oc2cc(N3CCc4cc(C#N)ccc43)ncn2)CC1 [Example 10, Isopropyl 4-{[6-(5-cyano-2,3-dihydro-1H-indol-1-yl)pyrimidin-4-yl]oxy}piperidine-1-carboxylate] |  |
|  |  | 70.9 nM |  | 97.5 | CC(C)OC(=O)N1CCC(Oc2cc(N3CCc4cc(C(=O)N(C)C)ccc43)ncn2)CC1 [Example 9, 4-[6-(5-Dimethylcarbamoyl-2,3-dihydroindol-1-yl)-pyrimidin-4-yloxy]-piperidine-1-carboxylic acid isopropyl ester] |  |

| Structure (SMILES) | EC50 [1] | Emax [1] [%] | EC50 [2] | Intrinsic Activity (Human cAMP) [2] | Emax [2] [%] | Intrinsic Activity (Human B-arrestin) [1] |
| --- | --- | --- | --- | --- | --- | --- |
| Cc1c(O[C@H]2[C@@H]3COC[C@H]2CN(C(=O)OC2(C)CC2)C3)ncnc1N1CCc2ncccc21 [Example 25, 1-Methylcyclopropyl (9-anti)-9-{[6-(2,3-dihydro-1H-pyrrolo[3,2-b]pyridin-1-yl)-5-methylpyrimidin-4-yl]oxy}-3-oxa-7-azabicyclo[3.3.1]nonane-7-carboxylate] | 14.7 nM and 12.4 nM and 19.3 nM and 40.7 nM and 18.2 nM |  |  | 52.9% and 68.3% and 67.7% and 74.3% and 62.9% |  | 58.7% and 81% and 78.6% and 68.6% and 74.5% |
